Assay results taken from patent publication EP0395313B1, “Tertiary alkyl functionalized piperazine derivatives” (AMERICAN HOME PRODUCTS CORPORATION, priority 1989, dated 1990).

How the values were obtained:
[1] = biological target: T1, 5-HT1A serotonin receptor (Rattus norvegicus, UniProt P19327); assay: displacement of [3H] 8-OH DPAT from the 5-HT1A serotonin receptor (procedure of Hall et al.); assay type: binding; details: for inhibition at 0.1 µM / inhibition at 1 µM: read-out: Affinity for 5HT1A Receptor % Inhibition; for IC50: [3H] 8-OH DPAT displacement, read-out: Affinity for 5HT1A Receptor IC50
T1 sequence (P19327 1-422): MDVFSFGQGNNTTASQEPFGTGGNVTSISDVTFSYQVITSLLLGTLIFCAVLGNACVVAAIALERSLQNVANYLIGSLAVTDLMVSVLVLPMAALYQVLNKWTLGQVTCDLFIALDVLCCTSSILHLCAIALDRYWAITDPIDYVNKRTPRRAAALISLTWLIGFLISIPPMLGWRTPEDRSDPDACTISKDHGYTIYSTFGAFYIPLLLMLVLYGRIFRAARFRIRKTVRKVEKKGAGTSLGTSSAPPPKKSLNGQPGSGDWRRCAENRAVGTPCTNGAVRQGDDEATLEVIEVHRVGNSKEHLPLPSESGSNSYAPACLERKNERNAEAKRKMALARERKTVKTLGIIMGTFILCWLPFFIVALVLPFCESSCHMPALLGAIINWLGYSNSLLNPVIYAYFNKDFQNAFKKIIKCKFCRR
Description: 8-OH DPAT (dipropylaminotetralin) from the 5-HT1A serotonin receptor by the procedure of Hall et al., J. Neurochem.

D2 dopamine receptor = D2 dopamine receptor (Rattus norvegicus, UniProt P61169); assay: D2 dopamine receptor binding study with 3H-spiroperiodol in homogenized limbic brain tissue; details: read-out: Affinity for D2 Receptor % Inhibition
Description: The D2 dopamine receptor binding study was in accordance with a modification of the procedure of Field et al., Brain Res., 136, pp. 578-584 (1977) and Yamamura et al., eds., Neurotransmitter Receptor Binding, Raven Press, N.Y. (1978), wherein homogenized limbic brain tissue is incubated with ^3H-spiroperiodol and various concentrations of test compounds, filtered and washed and shaken with Hydrofluoro scintillation cocktail (National Diagnostics) and counted in a Packard 460CD scintillation counter.

D2 dopamine receptor, sequence (P61169 whole entry): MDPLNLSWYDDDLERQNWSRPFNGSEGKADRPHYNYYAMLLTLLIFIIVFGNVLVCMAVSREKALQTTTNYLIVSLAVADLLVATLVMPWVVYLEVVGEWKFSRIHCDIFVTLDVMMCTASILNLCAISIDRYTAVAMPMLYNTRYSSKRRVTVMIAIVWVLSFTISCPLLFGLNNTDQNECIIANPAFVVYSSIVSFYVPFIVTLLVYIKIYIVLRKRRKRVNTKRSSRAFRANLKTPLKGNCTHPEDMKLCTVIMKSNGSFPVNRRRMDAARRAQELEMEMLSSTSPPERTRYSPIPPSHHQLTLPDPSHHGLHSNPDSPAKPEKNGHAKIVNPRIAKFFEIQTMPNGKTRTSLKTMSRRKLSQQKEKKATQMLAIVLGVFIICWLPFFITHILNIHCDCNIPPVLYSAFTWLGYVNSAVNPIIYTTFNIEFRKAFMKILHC

SMILES | inhibition at 0.1 µM [1] | inhibition at 10 µM (D2 dopamine receptor; at 10 µM) | IC50 [1] | inhibition at 1 µM [1] | inhibition at 0.1 µM (D2 dopamine receptor; at 0.1 µM) | inhibition at 1 µM (D2 dopamine receptor; at 1 µM)
COc1ccccc1N1CCN(CCC(=O)NC2(C)CCCCC2)CC1 [Example 4, 4-(2-Methoxyphenyl)-N-(1-methylcyclohexyl)-1-piperazinepropanamide] | 56% |  |  |  |  | 
COc1ccccc1N1CCN(CC(Cc2ccccc2)C(=O)NC(C)(C)C)CC1 (racemic) [Example 3, N-Tertiary-butyl 2-[[4-(2-methoxyphenyl)piperazinyl]methyl]-3-phenyl-propanamide] | 90% | 38% | 11.4 nM | 100% |  | 
COc1ccccc1N1CCN(CCC(=O)NC(C)(C)C)CC1 [Example 6, N-(1,1-Dimethylethyl)-3-[4-(2-methoxyphenyl)-1-piperazinyl]-propanamide] | 18% |  | 287 nM | 72% |  | 
COc1ccccc1N1CCN(CC(C(=O)NC(C)(C)C)c2ccccc2)CC1 (racemic) [Example 2, N-Tertiary-butyl 3-[4-(2-methoxyphenyl)piperazinyl]-2-phenyl-propanamide] | 69% |  | 25 nM | 86% | 8% | 32%
